Assay results as given in US10138510B2, “Dual labeling methods for measuring cellular proliferation” (LIFE TECHNOLOGIES CORPORATION, priority 2008, dated 2018).

Experiments:
Assay type in all cases: cell-based
[1] = test system: TF-1a human erythroblast cells; assay: Dual pulse EdU/BrdU labeling of cellular proliferation with varying GM-CSF, flow cytometry
Description: A standard method of preparing cultured cells for the measurement of newly synthesized DNA (cellular proliferation) is set up according to known conditions for cells to be actively growing by providing the proper media and nutrient requirements. In the present example, TF-1a human erythroblast cell cultures were diluted one to four to a density of 2×10^5 cells/ml. Culture media contains varying amounts of GM-CSF, or granulocyte-macrophage colony-stimulating factor, at amounts equal to full (2 ng/ml) or ¼ (0.5 ng/ml) recommended concentration of GM-CSF, and no GM-CSF. After these cells had been growing 18 hours, the first nucleoside analog, EdU, was added at 20 μM, a concentration appropriate for incorporation in the DNA of cells undergoing DNA synthesis. The cells were grown in the presence of EdU for three hours. After initial period of growth and without the removal of EdU through the washing of the cells in fresh media, an appropriate amount of the competitive nucleoside analog, BrdU, was added at a 10 μM concentration, and GM-CSF was added at the same time as the BrdU in amounts to equal the full amount recommended for GM-CSF concentration of 2 ng/ml or kept at the same initial concentration of GM-CSF. The cells were grown for six hours. The cells were then harvested, washed, fixed with 70% ice-cold ETOH and stored at 4° C. until use. The cells were then washed and resuspended in 4M HCL for 20 minutes at room temperature. A phosphate/critric acid buffer was added, and the cells washed twice and resuspended in 0.1% TritonX/1% BSA/PBS at 1×10^7/ml. Then, labeling of the EdU was performed by adding click chemistry based reagents, including a solution comprised of CuSO4 in Tris-buffered saline and Alexa Fluor® 647-azide (650 nm excitation maxima/670 nm emission maxima) (Molecular Probes™/Invitrogen™, Carlsbad, Calif.). The cells were then washed with 0.1% TritonX/1% BSA/PBS. After this, labeling of the BrdU was performed using the anti-BrdU antibody FITC conjugate (494 nm excitation maxima/518 nm emission maxima) (Exalpha Biologicals, Inc., Maynard Calif.). To detect DNA content, a nucleic acid dye, DAPI (358 nm excitation maxima/461 nm emission maxima) (Molecular Probes™/Invitrogen™, Carlsbad, Calif.) was added. Detection of the three labels was performed by flow cytometry. To detect the BrdU label, 488 nm excitation was used, with a 530/30 nm bandpass. To detect the EdU label, 633 nm excitation was used, with a 660/20 nm bandpass. To detect DNA content, 355 nm excitation was used, with a 450/50 nm bandpass.

[2] = test system: newly synthesized DNA of cells; assay: Simultaneous EdU and BrdU pulse, incorporation into DNA detected by flow cytometry; settings: for signal detected after simultaneous pulse: simultaneous pulse of EdU 20 μM and BrdU 10 μM, FIG. 3B
Text: FIG. 3A-1, FIG. 3A-2 and FIG. 3A-3 present a series of graphs showing populations of cells treated with a first pulse label of EdU (10 μm) and a second pulse label of BrdU (10 μm) as detected by flow cytometry. The first graph (FIG. 3A-1) is divided into four quadrants with the first quadrant (Q1) located in the upper left hand corner, the second quadrant (Q2) located in the upper right hand corner, the third quadrant (Q3) located in the lower left hand corner, and the fourth quadrant (Q4) located in the lower right hand corner. Populations of cells in quadrant Q3 (lower left) are negative for both EdU (first pulse) and BrdU (second pulse). Populations of cells in quadrant Q2 (upper right) are positive for both EdU (first pulse) and BrdU (second pulse). FIG. 3A-2 is a graph of EdU vs. DNA cell cycle with gating P5>P1. […] FIG. 3B presents a graph showing populations of cells treated with simultaneous pulse of EdU at a concentration of 20 μM and BrdU at a concentration of 10 μM as detected by flow cytometry. The graph is divided into four quadrants with the first quadrant (Q1) located in the upper left hand corner, the second quadrant (Q2) located in the upper right hand corner, the third quadrant (Q3) located in the lower left hand corner, and the fourth quadrant (Q4) located in the lower right hand corner. Populations of cells in quadrant Q3 (lower left) are negative for both EdU and BrdU. Populations of cells in quadrant Q2 (upper right) are positive for both EdU and BrdU.
FIG. 5A, FIG. 5B, FIG. 5C and FIG. 5D present a series of graphs showing that when cells are treated with EdU and BrdU simultaneously, only a population of DNA labeled with BrdU is detected by flow cytometry. […] The third and fourth graphs (FIGS. 5C and 5D, respectively) show the dual parameter plot of fluorescent nucleotide label vs. DNA cell cycle treated with EdU and BrdU simultaneously. Only BrdU was incorporated into cells treated simultaneously with EdU and BrdU, as shown in the third and fourth graphs. […]

[3] = test system: Jurkat T-cell lymphocyte cells; assay: Dual pulse EdU/BrdU labeling of cellular proliferation after colchicine cell cycle block, flow cytometry
Description: A standard method of preparing cultured cells for the measurement of newly synthesized DNA (cellular proliferation) is set up according to known conditions for cells to be actively growing by providing the proper media and nutrient requirements. In the present example, Jurkat T-cell lymphocyte cell cultures were diluted one to four to a density of 2×10^5 cells/ml. The cultures were treated with a cell cycle blocking agent, colchicine, which stops proliferation at the G2M stage of the cell cycle, at concentrations of 0, 32 nM, 75 nM, 125 nM, 250 nM, 500 nM and 1 μM for 18 hours. To each condition, the first nucleoside analog, EdU, was then added at 10 μM, a concentration appropriate for incorporation in the DNA of cells undergoing DNA synthesis. The cells were grown in the presence of EdU for one hour. The cells were then centrifuged to pellet the cells and remove the media with blocking agent, and cells had replacement of fresh media. The cell cultures were allowed to recover for two hours before an appropriate amount of the second nucleoside analog, BrdU, was added at a 10 μM concentration, and the cells were grown for one hour. The cells were then harvested, washed, fixed with 70% ice-cold ETOH and stored at 4° C. until use. The cells were then washed and resuspended in 4M HCL for 20 minutes at room temperature. A phosphate/critric acid buffer was added, and the cells washed twice and resuspended in 0.1% TritonX/1% BSA/PBS at 1×10^7/ml. Then, labeling of the EdU was performed by adding click chemistry based reagents, including a solution comprised of CuSO4 in Tris-buffered saline and Alexa Fluor® 647-azide (650 nm excitation maxima/670 nm emission maxima) (Molecular Probes™/Invitrogen™, Carlsbad, Calif.). The cells were then washed with 0.1% TritonX/1% BSA/PBS. […]
A series of result graphs labeled FIGS. 12-1A, 12-1B, 12-1C, 12-1D, 12-1E, 12-2F, 12-2G, 12-2H, 12-2I and 12-2J show populations of cells treated with a first pulse label of EdU (20 μM) and a second pulse label of BrdU (10 μm) as detected by flow cytometry. […]

[4] = GM-CSF 0.5 ng/ml with EdU pulse, 0.5 ng/ml with BrdU pulse
[5] = GM-CSF 0.5 ng/ml with EdU pulse, 2 ng/ml with BrdU pulse
[6] = GM-CSF 2 ng/ml (control) with EdU pulse, 2 ng/ml (control) with BrdU pulse, EdU 20 μM 3 h, BrdU 10 μM 6 h
[7] = no GM-CSF with EdU pulse, GM-CSF 2 ng/ml with BrdU pulse

## GM-CSF: granulocyte-macrophage colony-stimulating factor, growth factor in TF-1a culture media
[1]; 0.5 ng/ml GM-CSF, addition of GM-CSF to 2 ng/ml with the BrdU pulse
  proliferative recovery of cells: does not show any proliferative recovery
[1]; [4]
  % BrdU Pos: 66.3%
  % EdU Pos: 57%
[1]; [5]
  % BrdU Pos: 65.1%
  % EdU Pos: 57.5%
[1]; [6]
  % BrdU Pos: 72.2%
  % EdU Pos: 53.9%
[1]; dual pulse with 0.5 ng/ml GM-CSF vs 2 ng/ml control
  proliferation over control: only a slight decrease of proliferation over control
[1]; [7]
  % BrdU Pos: 53%
  % EdU Pos: 42.3%
[1]; no GM-CSF with EdU pulse, GM-CSF added with just the BrdU pulse
  proliferative recovery of cells (BrdU positivity): some proliferative recovery

## C#Cc1cn([C@H]2C[C@H](O)[C@@H](CO)O2)c(=O)[nH]c1=O [EdU, 5-ethynyl 2′-deoxyuridine]
[2]
  signal detected after simultaneous pulse: no signal detected

## COc1cc2c(c(OC)c1OC)-c1ccc(OC)c(=O)cc1[C@@H](NC(C)=O)CC2 [colchicine]
[3]; 32 nM colchicine for 18 hours before the first pulse, FIGS. 12-2F to 12-2J
  proliferation (EdU and BrdU positive events) vs control: decreased proliferation
[3]; all colchicine concentrations (32 nM to 1 μM), 18 hours, FIG. 11
  proliferation with both pulses of EdU and BrdU: decreased proliferation
[3]; any colchicine concentration, two hours recovery in fresh media
  recovery of proliferation after removal of colchicine (second pulse of BrdU): no recovery

## O=c1[nH]c(=O)n([C@H]2C[C@H](O)[C@@H](CO)O2)cc1Br [BrdU, 5-bromo 2′-deoxyuridine]
[2]; EdU and BrdU added simultaneously, Example 3, FIGS. 5A-5D
  incorporation into DNA in the presence of both nucleoside analogs: only the BrdU analog is incorporated into the DNA
[2]
  signal detected after simultaneous pulse: only positive signal detected from the BrdU
